Experimental data: patent publication US8637050B2, “Peptide vaccines against group A streptococci” (The United States of America, as represented by the …, priority 2001, dated 2014)

Each sequence was assayed on rabbit sera prepared against whole M protein (assay: ELISA: peptide recognition by anti-M protein rabbit sera).
Format: binding
Method: Overlapping peptides representing each M type were assessed for their immunogenicity using ELISA and dot-immunoblot.
Levels of anti-M protein antibodies in mouse sera were determined by an enzyme-linked immunosorbent assay (ELISA) using either synthetic peptides or whole M protein as antigen. Microtiter plates (DYNEX Immulon 2 HB) were coated with 10 μg/ml antigen in 10 mM phosphate-buffered saline (PBS) at 4° C. overnight. Plates were rinsed three times with wash buffer (0.05% Tween 20 in 10 mM PBS, pH 7.2) and blocked with 1% BSA in PBS for one hour at 37° C. The appropriate test sera were applied at a starting dilution of 1:1000 and serially diluted two fold down the plate in PBS. Plates were incubated at 37° C. for 30 minutes and subsequently rinsed three times. Goat anti-rabbit or goat anti-mouse Ig-peroxidase conjugate diluted 1:10,000 in PBS was added to all wells and incubated for two hours at 37° C. Plates were rinsed three times with wash buffer and freshly prepared TMB peroxidase (Kirkegaard and Perry Laboratories) was added. Reactions were quenched with 0.18 M H2SO4 after 30 minutes at room temperature and OD450 was measured with a Labsystems Multiskan plate reader using Ascent software. ELISA titers are expressed as the reciprocal of the last dilution which gave a reading OD450>0.10.
The immunoreactivity of several synthetic peptides was determined by ELISA using rabbit sera prepared against whole M protein. The synthetic peptides are representative of relatively small portions of the M protein N-terminus; therefore, it was advantageous to determine if the epitopes contained within particular peptides were immunoreactive with sera prepared against whole M protein. It was shown that the whole anti-M protein rabbit sera of the respective serotypes could bind to each of the synthetic peptides within that serotype. However, some peptides were more highly immunoreactive than others, thus being better suited for use in the animal studies.

| Sequence | immunoreactivity by ELISA using rabbit sera prepared against whole M protein |
| --- | --- |
| CKFERLKQRSELYLHQYYDNK [Peptide M12-4] | confirmed |
| CKENEELKVEREKYLSYADDK [Peptide M4-3] | confirmed |
| CEGNARLAQAQEEALRDVLNN [Peptide M41-1] | confirmed |
| CNSKNPAPAPAVPVKKEATKL [st2967-4] | confirmed |
| CTEHEKLRDEYYTLIDAKLEEK [Peptide M28-4] | confirmed |
| CKDELIKRKELTIIEIQNHQL [Peptide M18-5] | confirmed |
| CEQAKNNNGELTLQQKYDALT [Peptide M59-1] | confirmed |
| CLDQVTQLYTKHNSNYQQYNA [Peptide M3-3] | confirmed |
| CENPDKARELLNKYDVENSMLQ [Peptide M6-3] | confirmed |
| CDSDNINRSVSVKDNEKELHNK [Peptide M89-1] | confirmed |
| CELFEKLDKVEEEHKKVEEEHKK [Peptide M2-4] | confirmed |
| CNGDGNPREVIEDLAANNPVIQ [Peptide M1-6] | confirmed |
| CENHDLKTKNEGLKTENEGLK [Peptide M5-3] | confirmed |
| CNDELRENYRRTLDKFNTEQ [Peptide M75-3] | confirmed |
| CHPDVVAARESVLNNVRVPGT [Peptide M43-2] | confirmed |
| CTVTRSTINDPQRAKEALDKYE [Peptide M5-8] | confirmed |
| CDKLADAYNTLLTEHEKLRDE [Peptide M28-3] | confirmed |
| CDKLRLEKEELKTDLQKKERE [Peptide M101-4] | confirmed |
| CDNINRSVSVKDNEKELHNKIAD [Peptide M89-2] | confirmed |
| CDSSREVTNELTASMWKAQAD [Peptide M58-1] | confirmed |
| CDSAWNWPKEYNALLKENEEL [Peptide M4-2] | confirmed |
| CKKEAKKLNEAELYNKIQELE [Peptide M73-2] | confirmed |
| CVPVKKEATKLSEAELYNKIQ [st2967-2] | confirmed |
| CDLEEEREKLLNKLDKVEEEHKKD [Peptide M77-3] | confirmed |
| CRVPGTLWLRQKEENDKLKLEK [Peptide M43-3] | confirmed |
| CESKLINTLTDENEKLREELQQ [Peptide M22-3] | confirmed |

| Sequence | immunoreactivity by ELISA using rabbit sera prepared against whole M protein |
| --- | --- |
| CDDRSVSTNSGSVSTPYNNLLNE [Peptide M92-1] | confirmed |
| CAEIKKPQADSAWNWPKEYNA [Peptide M4-1] | confirmed |
| CEEASNNGQLTLQHKNNALTSE [Peptide M94-1] | confirmed |
| CRSDARSVNGEFPRHVKLKNE [Peptide M3-9] | confirmed |
| CELTLQQKYDALTNENKSLRRE [Peptide M59-2] | confirmed |
| CTVTRGTVNDPQRAKEALDKYE [Peptide M5-5] | confirmed |
| CAGQSAPKGTNVSADLYNSLWDE [Peptide M11-1] | confirmed |
| CDNQSPALVKKEAKKLNEAEL [Peptide M73-4] | confirmed |
| CNGDGNPRVVIEDLAANNPAIQ [Peptide M1-7] | confirmed |
| CELYNKIQELEEGKAELFDKLEK [Peptide M73-3] | confirmed |
| CLNQVTQLHTKHNSNYQQYNA [Peptide M3-8] | confirmed |
| CNTLNTLTDENEKLREELQQ [Peptide M22-4] | confirmed |
| CELPYEARYKAWKSENDELREN [Peptide M75-2] | confirmed |
| CESSNISQESKLINTLTDENEK [Peptide M22-2] | confirmed |
| CTVTRGTINDPQRAKEALDKYE [Peptide M5-1] | confirmed |
| CDLLAKHGELLSEYDALKEKQDK [Peptide M92-4] | confirmed |
| CEMQQRGTNFGPLLASTMRDNH [Peptide M33-3] | confirmed |
| CELHDKIKNLEEEKAELFEKLD [Peptide M2-3] | confirmed |
| CEEHEKVTQAREAVIREMQQR [Peptide M33-1] | confirmed |
| CTVTRGTINDPQRAKEVIDKYE [Peptide M5-7] | confirmed |
| CRREEKDRYLYEKEELEKKNK [Peptide M94-4] | confirmed |
| CESLRREKDRYLYEKEELEKK [Peptide M94-3] | confirmed |
| CELHNKIADLEEERGAHLDKID [Peptide M89-5] | confirmed |
| CRATADNKDELIKRANDYEIQ [Peptide M18-2] | confirmed |
| CEGVSVGSDASLHNRITDLEEEREK [Peptide M77-1] | confirmed |
| CEYDDLLAKHGELLSEYDALK [Peptide M92-3] | confirmed |

| Sequence | immunoreactivity by ELISA using rabbit sera prepared against whole M protein |
| --- | --- |
| CNSKNPAPAPASAVPVKKEATK [st2967-1] | confirmed |
| CNSKNPAPAVPVKKEATKLSE [st2967-5] | confirmed |
| CKAWKSENDELRENYRKTLDK [Peptide M75-4] | confirmed |
| CKSTETSANGADKLADAYNTL [Peptide M28-2] | confirmed |
| CDAEQNRANELEKKLSGYEKD [Peptide M82-4] | confirmed |
| CSDASLHNRITDLEEEREKLLNK [Peptide M77-2] | confirmed |
| CHEKVTQAREAVIREMQQRGT [Peptide M33-2] | confirmed |
| CRVFPRGTVENPDKARELLNK [Peptide M6-1] | confirmed |
| CHDLKTKNEGLKTENEGLKTEN [Peptide M5-9] | confirmed |
| CADHPSYTAAKDEVLSKFSVPGH [Peptide M101-1] | confirmed |
| CRLAQAQEEALRDVLNNTPHN [Peptide M41-2] | confirmed |
| CAESPKSTETSANGADKLAD [Peptide M28-1] | confirmed |
| CQLYTKHIYTKHNSNYQQYNAQ [Peptide M3-10] | confirmed |
| CDSDNSDNINRSVSVKDNEKE [Peptide M89-7] | confirmed |
| CKAKELEKQVEEYKKNYETLEK [Peptide M58-3] | confirmed |
| CKNDKLSSENEGLKAGLQEKE [Peptide M101-5] | confirmed |
| CIRNIRLRHENKDLKARLENA [Peptide M1-5] | confirmed |
| CTEVKAAGQSAPKGTNVSADL [Peptide M11-4] | confirmed |
| CLDQVTQLYTKHNSNYQQYSA [Peptide M3-5] | confirmed |
| CQAQEEALRDVLNNTPHNQLRD [Peptide M41-3] | confirmed |
| CKGTNVSADLYNSLWDENKT [Peptide M11-2] | confirmed |
| CNGDGNPREVIEDLAANNPAIQ [Peptide M1-1] | confirmed |
| CDPQRAKEALDKYELENHDLK [Peptide M5-2] | confirmed |
| CDSSREVTNELAASMWKAQAD [Peptide M58-4] | confirmed |
| CRGTVENPDKARELLNKYDVEN [Peptide M6-2] | confirmed |
| CNSMLQANNDKLTTENKNLTD [Peptide M6-5] | confirmed |
